Laboratory results published in patent publication US12594276B2, “Inhibitors of human immunodeficiency virus replication” (ViiV Healthcare UK (No.5) Limited, priority 2024, dated 2026).

Key:
[1] = Compound cytotoxicity, XTT-based colorimetric assay; type: cell-based; settings: human; uninfected MT2 cells, day 4, XTT; read-out: CC50
Procedure, shortened: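 Cells seeded as for the antiviral assay but left uninfected (MT2). Compound exposure continued to day 4. XTT reagent added and colour read. CC50 calculated.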

[2] = test system: recombinant NL4-3 virus (nef section replaced with Renilla luciferase gene) in MT-2 cells; test: HIV cell culture assay (antiviral activity, luciferase readout); type: cell-based; settings: Renilla, NL43, MT-2 cells infected for 4-5 days with recombinant NL4-3 Renilla luciferase virus
Procedure, shortened: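 Antiviral EC50 derived from luciferase signal using the exponential median effect equation. Infection of MT-2 cells ran 4-5 days alongside serial dilutions of compound, with virus generated by proviral clone transfection of 293T cells.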

Row | SMILES | CC50 at 4 days [1] | EC50 [2]
1 | Cc1cc(C2CCC(F)(F)CC2)nc2nc([C@H](Cc3cc(F)cc(F)c3)NC(=O)Cn3nc(C4CC4)c4c3C[C@@H]3C[C@H]43)n(-c3ccc(Cl)c4c(NS(C)(=O)=O)nn(CCN5CCO[C@@H](C(C)C)C5)c34)c(=O)c12 (atropisomer, axis not shown; (P)) [Example 456, N-[(1S)-1-[(3P)-3-(4-chloro-3-methanesulfonamido-1-{2-[(2S)-2-(propan-2-yl)morpholin-4-yl]ethyl}-1H-indazol-7-yl)-7-(4,4-difluorocyclohexyl)-5-methyl-4-oxo-3H,4H-pyrido[2,3-d]pyrimidin-2-yl]-2-(3,5-difluorophenyl)ethyl]-2-[(2S,4S)-9-cyclopropyl-7,8-diazatricyclo[4.3.0.0^2,^4]nona-1(6),8-dien-7-yl]acetamide] | > 20 nM | 0.01 nM
2 | COCCCn1nc(NS(C)(=O)=O)c2c(Cl)ccc(-n3c([C@H](Cc4cc(F)cc(F)c4)NC(=O)Cn4nc(C(F)F)c5c4C(F)(F)[C@@H]4C[C@H]54)nc4nc(C5CCC(F)(F)CC5)cc(NCCN5CC(F)(F)C5)c4c3=O)c21 (atropisomer, axis not shown; (P)) [Example 517, N-[(1S)-1-[(3P)-3-[4-chloro-3-methanesulfonamido-1-(3-methoxypropyl)-1H-indazol-7-yl]-5-{[2-(3,3-difluoroazetidin-1-yl)ethyl]amino}-7-(4,4-difluorocyclohexyl)-4-oxo-3H,4H-pyrido[2,3-d]pyrimidin-2-yl]-2-(3,5-difluorophenyl)ethyl]-2-[(2S,4R)-9-(difluoromethyl)-5,5-difluoro-7,8-diazatricyclo[4.3.0.0^2,^4]nona-1(6),8-dien-7-yl]acetamide] | > 20 nM | 0.009 nM
3 | COCCCn1nc(NS(C)(=O)=O)c2c(Cl)ccc(-n3c([C@H](Cc4cc(F)cc(F)c4)NC(=O)Cn4nc(C(F)F)c5c4C(F)(F)[C@@H]4C[C@H]54)nc4nc(C5CCC(F)(F)CC5)cc(NCCN5CCOCC5(C)C)c4c3=O)c21 (atropisomer, axis not shown; (P)) [Example 477, N-[(1S)-1-[(3P)-3-[4-chloro-3-methanesulfonamido-1-(3-methoxypropyl)-1H-indazol-7-yl]-7-(4,4-difluorocyclohexyl)-5-{[2-(3,3-dimethylmorpholin-4-yl)ethyl]amino}-4-oxo-3H,4H-pyrido[2,3-d]pyrimidin-2-yl]-2-(3,5-difluorophenyl)ethyl]-2-[(2S,4R)-9-(difluoromethyl)-5,5-difluoro-7,8-diazatricyclo[4.3.0.0^2,^4]nona-1(6),8-dien-7-yl]acetamide] | > 20 nM | 0.013 nM
4 | CS(=O)(=O)Nc1nn(CCN2CCC(F)(F)CC2)c2c(-n3c([C@H](Cc4cc(F)cc(F)c4)NC(=O)Cn4nc(C(F)F)c5c4C(F)(F)[C@@H]4C[C@H]54)nc4nc(C5CCC(F)(F)CC5)cc(CO)c4c3=O)ccc(Cl)c12 (atropisomer, axis not shown; (P)) [Example 675, N-[(1S)-1-[(3P)-3-{4-chloro-1-[2-(4,4-difluoropiperidin-1-yl)ethyl]-3-methanesulfonamido-1H-indazol-7-yl}-7-(4,4-difluorocyclohexyl)-5-(hydroxymethyl)-4-oxo-3H,4H-pyrido[2,3-d]pyrimidin-2-yl]-2-(3,5-difluorophenyl)ethyl]-2-[(2S,4R)-9-(difluoromethyl)-5,5-difluoro-7,8-diazatricyclo[4.3.0.0^2,4]nona-1(6),8-dien-7-yl]acetamide] | > 20 nM | 0.031 nM
5 | CS(=O)(=O)Nc1nn(CCN2CCN(S(C)(=O)=O)CC2)c2c(-n3c([C@H](Cc4cc(F)cc(F)c4)NC(=O)Cn4nc(C5CC5)c5c4C[C@@H]4C[C@H]54)nc4nc(C5CCC(F)(F)CC5)ccc4c3=O)ccc(Cl)c12 (atropisomer, axis not shown; (P)) [Example 382, N-[(1S)-1-[(3P)-3-{4-chloro-3-methanesulfonamido-1-[2-(4-methanesulfonylpiperazin-1-yl)ethyl]-1H-indazol-7-yl}-7-(4,4-difluorocyclohexyl)-4-oxo-3H,4H-pyrido[2,3-d]pyrimidin-2-yl]-2-(3,5-difluorophenyl)ethyl]-2-[(2S,4S)-9-cyclopropyl-7,8-diazatricyclo[4.3.0.0^2,^4]nona-1(6),8-dien-7-yl]acetamide] | > 20 nM | 0.037 nM
6 | Cc1cc(C2(F)CCC(F)(F)CC2)nc2nc([C@H](Cc3cc(F)cc(F)c3)NC(=O)Cn3nc(C(F)F)c4c3C(F)(F)[C@@H]3C[C@H]43)n(-c3ccc(Cl)c4c(NS(C)(=O)=O)nn(C[C@@H](C)N5C[C@H](F)C[C@H](F)C5)c34)c(=O)c12 (atropisomer, axis not shown; (P)) [Example 697, N-[(1S)-1-[(3P)-3-{4-chloro-1-[(2R)-2-[(3R,5S)-3,5-difluoropiperidin-1-yl]propyl]-3-methanesulfonamido-1H-indazol-7-yl}-5-methyl-4-oxo-7-(1,4,4-trifluorocyclohexyl)-3H,4H-pyrido[2,3-d]pyrimidin-2-yl]-2-(3,5-difluorophenyl)ethyl]-2-[(2S,4R)-9-(difluoromethyl)-5,5-difluoro-7,8-diazatricyclo[4.3.0.0^2,^4]nona-1(6),8-dien-7-yl]acetamide] | > 20 nM | 0.009 nM
7 | Cc1cc(C2CCC(F)(F)CC2)nc2nc([C@H](Cc3cc(F)cc(F)c3)NC(=O)Cn3nc(C4CC4)c4c3C[C@@H]3C[C@H]43)n(-c3ccc(Cl)c4c(NS(C)(=O)=O)nn(CCN5CC(C(F)F)C5)c34)c(=O)c12 (atropisomer, axis not shown; (P)) [Example 275] | > 50 nM | 0.012 nM
8 | COCCNc1cc(C2CCC(F)(F)CC2)nc2nc([C@H](Cc3cc(F)cc(F)c3)NC(=O)Cn3nc(C(F)F)c4c3C(F)(F)[C@@H]3C[C@H]43)n(-c3ccc(Cl)c4c(NS(C)(=O)=O)nn(CCN5C[C@@H](C)O[C@@H](C)C5)c34)c(=O)c12 (atropisomer, axis not shown; (P)) [Example 418, N-[(1S)-1-[(3P)-3-(4-chloro-1-{2-[(2R,6S)-2,6-dimethylmorpholin-4-yl]ethyl}-3-methanesulfonamido-1H-indazol-7-yl)-7-(4,4-difluorocyclohexyl)-5-[(2-methoxyethyl)amino]-4-oxo-3H,4H-pyrido[2,3-d]pyrimidin-2-yl]-2-(3,5-difluorophenyl)ethyl]-2-[(2S,4R)-9-(difluoromethyl)-5,5-difluoro-7,8-diazatricyclo[4.3.0.0^2,^4]nona-1(6),8-dien-7-yl]acetamide] | > 20 nM | 0.019 nM
9 | Cc1cc(C2(F)CCC(F)(F)CC2)nc2nc([C@H](Cc3cc(F)cc(F)c3)NC(=O)Cn3nc(C(F)F)c4c3C(F)(F)[C@@H]3C[C@H]43)n(-c3ccc(Cl)c4c(NS(C)(=O)=O)nn(CCN5C[C@@H](C)O[C@@H](C)C5)c34)c(=O)c12 (atropisomer, axis not shown; (P)) [Example 502, N-[(1S)-1-[(3P)-3-(4-chloro-1-{2-[(2R,6S)-2,6-dimethylmorpholin-4-yl]ethyl}-3-methanesulfonamido-1H-indazol-7-yl)-5-methyl-4-oxo-7-(1,4,4-trifluorocyclohexyl)-3H,4H-pyrido[2,3-d]pyrimidin-2-yl]-2-(3,5-difluorophenyl)ethyl]-2-[(2S,4R)-9-(difluoromethyl)-5,5-difluoro-7,8-diazatricyclo[4.3.0.0^2,^4]nona-1(6),8-dien-7-yl]acetamide] | > 20 nM | 0.019 nM
10 | Cc1cc(C2CCC(F)(F)CC2)nc2nc([C@H](Cc3cc(F)cc(F)c3)NC(=O)Cn3nc(C(F)F)c4c3C(F)(F)[C@@H]3C[C@H]43)n(-c3ccc(Cl)c4c(NS(C)(=O)=O)nn(CCN5CCC(C)(F)CC5)c34)c(=O)c12 (atropisomer, axis not shown; (P)) [Example 271, N-[(1S)-1-[(3P)-3-{4-chloro-1-[2-(4-fluoro-4-methylpiperidin-1-yl)ethyl]-3-methanesulfonamido-1H-indazol-7-yl}-7-(4,4-difluorocyclohexyl)-5-methyl-4-oxo-3H,4H-pyrido[2,3-d]pyrimidin-2-yl]-2-(3,5-difluorophenyl)ethyl]-2-[(2S,4R)-9-(difluoromethyl)-5,5-difluoro-7,8-diazatricyclo[4.3.0.0^2,^4]nona-1(6),8-dien-7-yl]acetamide] | > 50 nM | 0.015 nM
11 | CC1(F)CCN(CCn2nc(NS(C)(=O)=O)c3c(Cl)ccc(-n4c([C@H](Cc5cc(F)cc(F)c5)NC(=O)Cn5nc(C(F)F)c6c5C(F)(F)[C@@H]5C[C@H]65)nc5nc(C6CCC(F)(F)CC6)cc(C(F)F)c5c4=O)c32)CC1 (atropisomer, axis not shown; (P)) [Example 290, N-[(1S)-1-[(3P)-3-{4-chloro-1-[2-(4-fluoro-4-methylpiperidin-1-yl)ethyl]-3-methanesulfonamido-1H-indazol-7-yl}-7-(4,4-difluorocyclohexyl)-5-(difluoromethyl)-4-oxo-3H,4H-pyrido[2,3-d]pyrimidin-2-yl]-2-(3,5-difluorophenyl)ethyl]-2-[(2S,4R)-9-(difluoromethyl)-5,5-difluoro-7,8-diazatricyclo[4.3.0.0^2,^4]nona-1(6),8-dien-7-yl]acetamide] | > 50 nM | 0.023 nM
12 | Cc1cc(C2CCC(F)(F)CC2)nc2nc([C@H](Cc3cc(F)cc(F)c3)NC(=O)Cn3nc(C4CC4)c4c3C[C@@H]3C[C@H]43)n(-c3ccc(Cl)c4c(NS(C)(=O)=O)nn(CC5(N6C[C@@H](C)O[C@@H](C)C6)CC5)c34)c(=O)c12 (relative stereo) [Example 691, N-[(1S)-1-[(3P)-3-[4-chloro-1-({1-[(2R,6S)-2,6-dimethylmorpholin-4-yl]cyclopropyl}methyl)-3-methanesulfonamido-1H-indazol-7-yl]-7-(4,4-difluorocyclohexyl)-5-methyl-4-oxo-3H,4H-pyrido[2,3-d]pyrimidin-2-yl]-2-(3,5-difluorophenyl)ethyl]-2-[(2R*,4R*)-9-cyclopropyl-7,8-diazatricyclo[4.3.0.0^2,^4]nona-1(6),8-dien-7-yl]acetamide] | > 20 nM | 0.007 nM
